# Measurements published in patent publication US20230233425A1, “USE OF VOLATILE COMPOSITIONS TO LIMIT OR ELIMINATE THE PERCEPTION OF MALODOR” (Firmenich SA, priority 2017, published 2023).
# Where two headings read alike, the source gives them in different places.
# Tests used:
# Olfr740 = Olfr740 (Mus musculus, UniProt E9PV79); assay: Indole antagonist dose-response, cAMP HTRF in HEK293T, vs indole EC80; type: cell-based; conditions: vs indole EC80; for Emax: HEK-293T, read-out: Olfr740 % Inhibition; for IC50: read-out: Olfr740 IC50
# Procedure: (§1) Using a cell-based assay, mouse receptor Olfr738, Olfr739, Olfr740, Olfr741, 0fr742, Olfr743, Olfr744, Olfr746, Olfr748 and Olfr749 were tested in an HEK293T cell line wherein the endogenous RTP1 gene has been activated and the odorant receptor chaperone was expressed (described in WO2016201153A1). The receptor genes were tagged with a Flag-Rho tag combination. Receptor genes were co-transfected with the canonical olfactory human G-protein alpha subunit Golf gene. Co-expression of the human Golf activates the Gs transduction pathway that leads to an internal cAMP increase upon binding to the appropriate ligand (indole here). Odorant-induced activity was detected by measuring the cAMP increase in the cytosol using an HTRF based kit (CisBio, cAMP dynamic 2 kit, cat. 62AM4PEJ).
# Olfr746 = target: T1, Olfr746 (Mus musculus, UniProt E9Q840); assay: as above; type: cell-based; conditions: Table 23
# T1 construct: Flag; Rho tag; expressed in transfected cells
# T1 sequence (E9Q840 1-314): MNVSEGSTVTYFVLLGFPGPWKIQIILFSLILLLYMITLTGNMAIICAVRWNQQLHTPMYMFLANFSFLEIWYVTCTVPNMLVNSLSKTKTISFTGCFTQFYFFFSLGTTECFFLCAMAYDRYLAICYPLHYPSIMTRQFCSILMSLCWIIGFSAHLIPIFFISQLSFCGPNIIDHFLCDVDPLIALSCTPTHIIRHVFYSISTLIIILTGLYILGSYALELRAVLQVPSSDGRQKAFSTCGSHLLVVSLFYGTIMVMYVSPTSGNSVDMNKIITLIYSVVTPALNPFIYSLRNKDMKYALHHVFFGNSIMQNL
# Procedure: as §1, with “Functional dose-response experiments were performed to identify compounds capable of antagonizing indole-sensitive receptors previously identified (U.S. Pat. No. 9,914,760 B2). Using” for “Using”, “62AM4PEJ). The receptors were exposed to binary mixtures of increasing concentrations of the test compounds in the presence of a potent activation concentration of indole (EC80) for each receptor. […] All the compounds listed decreased the indole induced activity of at least one receptor.” for “62AM4PEJ).”
# [1] = tested on: geonol receptors Olfr339, Olfr1487, Olfr1A1, OR11A1, Olfr96; assay: Antagonists of geonol receptors (Example 11); type: cell-based, mouse and human; set-up: Inhibition(%): concentration or dose not given beside the values; conditions: Table 18
# Olfr741 = Olfr741 (Mus musculus, UniProt L7N1Y5); assay: Indole antagonist dose-response, cAMP HTRF in HEK293T, vs indole EC80; type: cell-based
# Procedure: as §1
# Olfr738 = Olfr738 (Mus musculus, UniProt L7N1X7); assay: as above; type: cell-based; conditions: vs indole EC80; for IC50: read-out: Olfr738 IC50
# Procedure: as §1
# Olfr742 = Olfr742 (Mus musculus, UniProt A2RTP5); assay: as above; type: cell-based; conditions: vs indole EC80; for IC50: read-out: Olfr742 IC50; for Emax: HEK-293T, read-out: Olfr742 % Inhibition
# Procedure: as §1
# [2] = tested on: OR11A1, or the OR2M3 olfactory receptor; assay: Geonol olfactory receptor antagonist cell-based screening, inhibitory dose-response vs geonol EC80; set-up: species or system human; conditions: geonol at EC80; read-out: IC50
# [3] = tested on: geonol earthy/moss odor perception; assay: Human sensory performance of test compounds with and without geonol; type: in vivo
# How it was run: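 Panelists first learned the earthy/moss quality from a geonol-only reference, then rated pleasantness, earthy/moss intensity and overall intensity of geonol alone, antagonist alone, and geonol mixed with isointense or low-intensity antagonist on a 0-10 linear scale. Samples were presented in glass jars in randomized order with two-minute intervals.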
# Olfr744 = target: T2, Olfr744 (Mus musculus, UniProt Q7TRM0); assay: Indole antagonist dose-response, cAMP HTRF in HEK293T, vs indole EC80; type: cell-based; conditions: Table 23
# T2 construct: Flag; Rho tag; expressed in transfected cells
# T2 sequence (Q7TRM0 1-323): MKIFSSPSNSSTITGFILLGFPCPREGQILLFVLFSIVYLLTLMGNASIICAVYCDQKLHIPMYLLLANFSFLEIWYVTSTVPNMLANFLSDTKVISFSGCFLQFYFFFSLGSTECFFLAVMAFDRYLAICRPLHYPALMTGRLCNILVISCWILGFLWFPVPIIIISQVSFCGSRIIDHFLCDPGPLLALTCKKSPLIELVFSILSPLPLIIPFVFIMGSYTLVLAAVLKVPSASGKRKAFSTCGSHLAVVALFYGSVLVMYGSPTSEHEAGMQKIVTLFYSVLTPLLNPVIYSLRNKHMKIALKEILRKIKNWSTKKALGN
# Procedure: as §1, with “Functional dose-response experiments were performed to identify compounds capable of antagonizing indole-sensitive receptors previously identified (U.S. Pat. No. 9,914,760 B2). Using” for “Using”, “62AM4PEJ). The receptors were exposed to binary mixtures of increasing concentrations of the test compounds in the presence of a potent activation concentration of indole (EC80) for each receptor. […] All the compounds listed decreased the indole induced activity of at least one receptor.” for “62AM4PEJ).”
# Olfr743 = Olfr743 (Mus musculus, UniProt L7N1Y2); assay: as above; type: cell-based; conditions: Table 23
# Procedure: as §1, with “Functional dose-response experiments were performed to identify compounds capable of antagonizing indole-sensitive receptors previously identified (U.S. Pat. No. 9,914,760 B2). Using” for “Using”, “62AM4PEJ). The receptors were exposed to binary mixtures of increasing concentrations of the test compounds in the presence of a potent activation concentration of indole (EC80) for each receptor. […] All the compounds listed decreased the indole induced activity of at least one receptor.” for “62AM4PEJ).”
# Olfr739 = Olfr739 (Mus musculus, UniProt E9Q1P0); assay: as above; type: cell-based
# Procedure: as §1, with “Functional dose-response experiments were performed to identify compounds capable of antagonizing indole-sensitive receptors previously identified (U.S. Pat. No. 9,914,760 B2). Using” for “Using”, “62AM4PEJ). The receptors were exposed to binary mixtures of increasing concentrations of the test compounds in the presence of a potent activation concentration of indole (EC80) for each receptor. […] All the compounds listed decreased the indole induced activity of at least one receptor.” for “62AM4PEJ).”
# [4] = tested on: geonol malodor (earthy/moss odor) perception; assay: Sensory evaluation of geonol earthy/moss odor in iso-intense binary mixtures (glass jars); type: in vivo, human; conditions: iso-intense binary mixture
# Source text: Sensory Evaluation: Five 16 oz glass jars containing either REF (geonol only), geonol only control, antagonist only, mixture of geonol and isointense antagonist, or mixture of geonol and low intensity antagonist were presented to the panelists (last four samples were randomized across panelists). The panelists were asked to familiarize themselves with the earthy/moss odor quality from the REF jar first, then rate the pleasantness, earthy/moss odor intensity and overall odor intensity of the next four samples on a 0-10 linear scale. The inter-stimulus interval between the samples was two minutes to avoid adaptation.
# Olfr748 = Olfr748 (Mus musculus, UniProt E9Q9Z0); assay: Indole antagonist dose-response, cAMP HTRF in HEK293T, vs indole EC80; type: cell-based; conditions: Table 23
# Procedure: as §1
# Olfr749 = target: T3, Olfr749 (Mus musculus, UniProt E9Q438); assay: as above; type: cell-based; conditions: Table 23
# T3 construct: Flag; Rho tag; expressed in transfected cells
# T3 sequence (E9Q438 1-313): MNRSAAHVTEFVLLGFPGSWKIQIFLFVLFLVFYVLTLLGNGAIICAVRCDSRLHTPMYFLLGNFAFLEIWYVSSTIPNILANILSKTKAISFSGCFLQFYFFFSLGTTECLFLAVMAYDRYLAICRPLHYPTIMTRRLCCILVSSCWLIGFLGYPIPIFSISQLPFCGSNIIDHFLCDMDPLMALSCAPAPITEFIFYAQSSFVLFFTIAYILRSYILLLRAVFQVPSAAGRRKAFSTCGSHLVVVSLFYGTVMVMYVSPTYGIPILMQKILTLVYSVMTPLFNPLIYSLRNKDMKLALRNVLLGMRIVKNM
# Procedure: as §1, with “Functional dose-response experiments were performed to identify compounds capable of antagonizing indole-sensitive receptors previously identified (U.S. Pat. No. 9,914,760 B2). Using” for “Using”, “62AM4PEJ). The receptors were exposed to binary mixtures of increasing concentrations of the test compounds in the presence of a potent activation concentration of indole (EC80) for each receptor. […] All the compounds listed decreased the indole induced activity of at least one receptor.” for “62AM4PEJ).”
# [5] = tested on: 1-octen-3-ol receptors OR2W1, Olfr93, Olfr120, Olfr398; assay: Antagonists of 1-octen-3-ol receptors (Example 11); type: cell-based, mouse and human; set-up: Inhibition(%): concentration or dose not given beside the values; conditions: Table 19
# [6] = Table 22, second listing of the same compounds
# [7] = Table 22, first listing (r7-r45)
# Olfr741, sequence (L7N1Y5 entry or part of it): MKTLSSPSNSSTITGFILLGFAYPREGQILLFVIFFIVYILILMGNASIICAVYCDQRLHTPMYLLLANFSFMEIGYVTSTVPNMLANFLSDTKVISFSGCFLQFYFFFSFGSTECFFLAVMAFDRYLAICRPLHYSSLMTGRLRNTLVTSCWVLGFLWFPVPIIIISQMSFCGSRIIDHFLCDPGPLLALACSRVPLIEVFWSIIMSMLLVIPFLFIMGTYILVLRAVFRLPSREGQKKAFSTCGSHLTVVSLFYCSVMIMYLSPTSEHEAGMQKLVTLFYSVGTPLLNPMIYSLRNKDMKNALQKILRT
# Olfr742, sequence (A2RTP5 entry or part of it): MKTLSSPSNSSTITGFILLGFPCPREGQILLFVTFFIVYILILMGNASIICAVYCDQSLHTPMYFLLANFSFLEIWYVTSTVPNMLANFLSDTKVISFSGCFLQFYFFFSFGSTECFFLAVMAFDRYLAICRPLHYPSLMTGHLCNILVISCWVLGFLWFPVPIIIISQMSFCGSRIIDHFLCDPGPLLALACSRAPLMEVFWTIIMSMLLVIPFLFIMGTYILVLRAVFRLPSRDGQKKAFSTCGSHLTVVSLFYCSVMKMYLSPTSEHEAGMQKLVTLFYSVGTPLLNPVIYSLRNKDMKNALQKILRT
# Olfr738, sequence (L7N1X7 entry or part of it): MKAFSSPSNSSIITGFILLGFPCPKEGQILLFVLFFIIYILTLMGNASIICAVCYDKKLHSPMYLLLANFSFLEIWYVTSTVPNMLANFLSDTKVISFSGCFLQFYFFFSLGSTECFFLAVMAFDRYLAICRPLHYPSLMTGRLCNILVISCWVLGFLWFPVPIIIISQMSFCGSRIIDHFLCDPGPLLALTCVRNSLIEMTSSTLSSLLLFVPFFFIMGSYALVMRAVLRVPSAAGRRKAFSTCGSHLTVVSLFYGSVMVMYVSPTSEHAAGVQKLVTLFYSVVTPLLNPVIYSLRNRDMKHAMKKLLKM
# Olfr740, sequence (E9PV79 entry or part of it): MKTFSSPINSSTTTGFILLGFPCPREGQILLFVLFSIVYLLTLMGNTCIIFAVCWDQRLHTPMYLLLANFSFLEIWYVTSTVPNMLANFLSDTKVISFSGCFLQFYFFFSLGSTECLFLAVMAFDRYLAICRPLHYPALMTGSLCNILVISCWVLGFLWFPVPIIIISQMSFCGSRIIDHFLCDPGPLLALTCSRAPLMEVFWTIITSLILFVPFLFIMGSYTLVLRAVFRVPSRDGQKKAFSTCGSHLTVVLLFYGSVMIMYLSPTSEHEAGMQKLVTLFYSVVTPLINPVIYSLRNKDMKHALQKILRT
# Olfr743, sequence (L7N1Y2 entry or part of it): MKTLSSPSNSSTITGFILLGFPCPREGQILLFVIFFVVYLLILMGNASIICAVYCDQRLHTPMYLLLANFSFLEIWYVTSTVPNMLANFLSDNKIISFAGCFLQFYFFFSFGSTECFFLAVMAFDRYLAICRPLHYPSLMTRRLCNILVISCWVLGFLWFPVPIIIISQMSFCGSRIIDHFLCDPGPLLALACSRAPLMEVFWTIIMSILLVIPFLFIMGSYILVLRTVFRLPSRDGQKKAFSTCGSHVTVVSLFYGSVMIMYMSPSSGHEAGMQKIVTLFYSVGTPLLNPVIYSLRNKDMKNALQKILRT
# Olfr739, sequence (E9Q1P0 entry or part of it): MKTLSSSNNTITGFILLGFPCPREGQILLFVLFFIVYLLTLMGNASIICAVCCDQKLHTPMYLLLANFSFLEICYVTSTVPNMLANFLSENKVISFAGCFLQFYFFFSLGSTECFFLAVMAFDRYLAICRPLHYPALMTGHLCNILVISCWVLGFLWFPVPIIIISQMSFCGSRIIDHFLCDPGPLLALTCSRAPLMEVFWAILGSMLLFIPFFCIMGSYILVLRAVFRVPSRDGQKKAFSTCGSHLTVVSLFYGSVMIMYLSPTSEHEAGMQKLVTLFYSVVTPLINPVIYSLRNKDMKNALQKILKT
# Olfr748, sequence (E9Q9Z0 entry or part of it): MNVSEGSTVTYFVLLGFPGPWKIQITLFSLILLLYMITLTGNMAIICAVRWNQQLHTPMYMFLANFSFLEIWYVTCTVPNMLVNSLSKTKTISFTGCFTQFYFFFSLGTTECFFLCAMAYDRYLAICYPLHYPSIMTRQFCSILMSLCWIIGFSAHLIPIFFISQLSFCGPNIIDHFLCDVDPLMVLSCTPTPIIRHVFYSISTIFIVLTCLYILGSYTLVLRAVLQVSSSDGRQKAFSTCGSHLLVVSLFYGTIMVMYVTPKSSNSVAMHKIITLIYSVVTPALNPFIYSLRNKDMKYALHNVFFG
compound,measurement,setting,value
"C=CCCC(=O)C1=CCCC(C)(C)C1 [1-(5,5-dimethylcyclohexen-1-yl)pent-4-en-1-one]",Emax,"Olfr740; Table 22, first listing",91.2%
same,Emax,Olfr740; [6],58.9%
same,IC50,Olfr740; [7],63.6 µM
same,IC50,Olfr746,224 µM
same,Olfr746 % Inhibition,Olfr746,58.87%
same,IC50,[1],220 µM
same,Inhibition(%),[1],40%
6(8)-ISOPROPYLQUINOLINE [isopropyl quinoline],IC50,"Olfr741; Table 22, first listing",91.6 µM
same,Olfr741 % Inhibition,"Olfr741; Table 22, first listing",54.55%
same,Olfr740 % Inhibition,"Olfr740; Table 22, first listing",148.06%
same,IC50,"Olfr740; Table 22, first listing",40.9 µM
same,Olfr738 % Inhibition,"Olfr738; Table 22, first listing",20.66%
same,IC50,"Olfr738; Table 22, first listing",120 µM
same,Olfr738 % Inhibition,Olfr738; [6],39.62%
same,Olfr742 % Inhibition,"Olfr742; Table 22, first listing",72.34%
same,IC50,"Olfr742; Table 22, first listing",86.6 µM
same,IC50,[2],400 µM
same,% Earthy/Moss Odor Remaining,[3]; Low Dilution Test Compound + Geonol (0.1%),99.60%
same,% Earthy/Moss Odor Remaining,[3]; Medium Dilution Test Compound + Geonol (0.1%),104.70%
same,% Earthy/Moss Odor,[3]; Test Compound Only,54.70%
same,IC50,Olfr744,102 µM
same,Olfr744 % Inhibition,Olfr744,116.59%
same,IC50,Olfr743,119 µM
same,Olfr743 % Inhibition,Olfr743,39.62%
same,IC50,"Olfr739; Table 22, first listing",61.3 µM
same,Olfr739 % Inhibition,"Olfr739; Table 22, first listing",74.96%
same,Olfr739 % Inhibition,Olfr739; [6],116.59%
same,% Remaining in human sensory tests,[4],110%
"c1nc2c(o1)CCCCCCCCCC2 [4,5,6,7,8,9,10,11,12,13-decahydrocyclododeca[d][1,3]oxazole]",IC50,"Olfr741; Table 22, first listing",33.7 µM
same,Olfr741 % Inhibition,"Olfr741; Table 22, first listing",62.10%
same,IC50,Olfr741; [6],216 µM
same,Olfr741 % Inhibition,Olfr741; [6],12.61%
same,IC50,Olfr748,216 µM
same,Olfr748 % Inhibition,Olfr748,12.61%
same,Emax,"Olfr740; Table 22, first listing",102%
same,IC50,Olfr740; [7],5.52 µM
same,IC50,Olfr738; [7],9.26 µM
same,Olfr738 % Inhibition,"Olfr738; Table 22, first listing",93.54%
same,Olfr738 % Inhibition,Olfr738; [6],31.68%
same,Emax,"Olfr742; Table 22, first listing",59.7%
same,Emax,Olfr742; [6],57.9%
same,IC50,Olfr742; [7],26.8 µM
same,IC50,Olfr744,117 µM
same,Olfr744 % Inhibition,Olfr744,38.37%
same,IC50,Olfr743,58.9 µM
same,Olfr743 % Inhibition,Olfr743,31.68%
same,Olfr739 % Inhibition,"Olfr739; Table 22, first listing",61.91%
same,IC50,Olfr739; [7],24.1 µM
same,Olfr739 % Inhibition,Olfr739; [6],38.37%
same,IC50,Olfr749,70 µM
same,Olfr749 % Inhibition,Olfr749,57.85%
same,IC50,[5],38 µM
same,Inhibition(%),[5],77%
